Test results taken from patent publication US20120101099A1, “HISTONE DEACETYLASE INHIBITORS” (ANTHEM BIOSCIENCES PRIVATE LIMITED, priority 2009, published 2012).
In brackets after ≈: the same amount, converted by molar mass. Structures can show the parent of a compound that is named as a salt. Where two headings read alike, the source gives them in different places.

How the values were obtained:
[1] = Absolute aqueous solubility; format: physicochemical; conditions: 25 °C, thermodynamic from solid; water, about 6 hrs equilibration, 25 deg centigrade, UV
Protocol: The objective of the study was to determine the absolute solubility of the powder form of the test compounds in water. Brief procedure: The powder form of test compounds was allowed to saturate in an aqueous medium and is equilibrated for about 6 hrs until the compound precipitates. The precipitated solution was centrifuged at 15,000 rpm for 10 mins at 25 deg centigrade and the supernatant solution was analyzed by UV spectrometry. If required the supernatant was diluted further until the absorbance by UV spectroscopy was within the limits of the standard curve obtained with the test compound. λmax was selected from UV spectra having maximum absorbance for that compound.

[2] = Metabolic stability in mouse liver microsomes; format: in vitro ADME; conditions: 100 μM, 37° C.
Protocol: The objective of the study is to determine the metabolic stability of the compounds in mouse liver microsomes. Brief procedure: metabolic stability of test compounds were carried out using mouse liver microsomes. The final composition of the assay includes test compound 100 μM (dissolved in DMSO), mouse microsomal protein 0.5 mg/mL and cofactors (G-6-P 5.0 mM, G-6-PDH 0.06 U, MgCl2 2.0 mM, NADP+1.0 mM, UDPGA 0.5 mM, PAPS 0.6 mM and GSH 1 mM). The test compounds were incubated at with mouse liver microsomes with cofactors. After 1 h incubation at 37° C., the reaction was stopped by addition of stop solution (ice cold acetonitrile). The samples were centrifuged and supernatants were analysed using LC/MS/MS. The Percent of parent test compounds remaining after 1 h of incubation time was calculated with respect to the peak areas of at time 0.

CYP 1A2 = molecular target: T1, CYP 1A2 (Homo sapiens, UniProt P05177); assay: Cytochrome-P450 isoforms liability determination; format: in vitro ADME
T1 construct: purchased
T1 sequence (P05177 1-516): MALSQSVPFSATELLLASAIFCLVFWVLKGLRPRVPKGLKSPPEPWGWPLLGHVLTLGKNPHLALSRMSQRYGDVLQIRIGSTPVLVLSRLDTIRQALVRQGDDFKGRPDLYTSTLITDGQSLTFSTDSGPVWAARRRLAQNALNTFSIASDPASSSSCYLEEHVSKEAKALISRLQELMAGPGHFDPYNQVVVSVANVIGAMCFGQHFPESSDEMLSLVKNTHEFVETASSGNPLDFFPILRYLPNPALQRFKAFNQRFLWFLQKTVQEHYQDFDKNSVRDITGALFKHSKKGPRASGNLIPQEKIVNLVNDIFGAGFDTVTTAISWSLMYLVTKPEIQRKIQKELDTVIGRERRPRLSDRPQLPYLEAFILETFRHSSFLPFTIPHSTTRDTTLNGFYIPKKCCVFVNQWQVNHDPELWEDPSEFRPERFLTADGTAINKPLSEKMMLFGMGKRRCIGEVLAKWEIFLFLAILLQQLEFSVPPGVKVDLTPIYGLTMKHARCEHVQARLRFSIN
Protocol: (§1) To determine the test compound liability towards Human cytochrome 450 (hCYP450) Isoforms fluorescence based screening kits.
(§2) Brief procedure: 2× test compounds were prepared by dilution with deionized water. A serial dilution of the test compound was done. 2× solution of known inhibitor were used as a positive control. 40 μL of the 2× solution that is prepared was added to the desired wells. Two replicates were included for every compound. 50 μL of the Master premix (premix of CYP450 Baclosomes, reagents and regenerating system) was dispensed into each well. The plate was incubated for 20 min at room temperature to allow the compounds to interact with the CYP450enzymes. The reaction was started by adding 10 μL of the substrate and NADP^+ mixture. The plate was incubated for the desired amount of time, and then 10 μL of stop reagent was added to each well to quench the reaction. The fluorescence was measured in the fluorescent plate reader at excitation and emission wavelengths as recommended, depending on the substrate used.

CYP 2C19 = molecular target: T2, CYP 2C19 (Homo sapiens, UniProt P33261); assay: Cytochrome-P450 isoforms liability determination; format: in vitro ADME
T2 construct: purchased
Protocol: as §1, §2

CYP 2C9 = molecular target: T3, CYP 2C9 (Homo sapiens, UniProt P11712); assay: Cytochrome-P450 isoforms liability determination; format: in vitro ADME
T3 construct: purchased
Protocol: as §1, §2

CYP 2D6 = molecular target: T4, CYP 2D6 (Homo sapiens, UniProt P10635); assay: Cytochrome-P450 isoforms liability determination; format: in vitro ADME
T4 construct: purchased
Protocol: as §1, §2

acetyl-Histone H3 = assay: Histone hyperacetylation in Hela cells (Western Blot); format: cell-based; set-up: key: represented by the symbol ‘+’ which indicates the relative extent of modulation; ++: represented by the symbol ‘+’ which indicates the relative extent of modulation; +++: represented by the symbol ‘+’ which indicates the relative extent of modulation; ++++: represented by the symbol ‘+’ which indicates the relative extent of modulation; conditions: 24 hrs, 0.03-3.0 μM
Protocol: (§3) HeLa Cells were seeded at a density of 0.4×10^6 Cells/well into 6 well plates and incubated for 24 h The compounds were tested at 5 different concentrations (0.03, 0.1, 0.3, 1.0, 3.0 μM) with corresponding control. After 24 hrs cells were lysed and histone proteins were extracted as per established protocols and the extract was used for measuring H3 and H4 hyperacetylation by Western Blot using Anti-acetyl-Histone H3 and Anti-acetyl-Histone H4 (Millipore, USA) antibodies.

acetyl-Histone H4 = assay: as above; format: cell-based; set-up: key: represented by the symbol ‘+’ which indicates the relative extent of modulation; ++: represented by the symbol ‘+’ which indicates the relative extent of modulation; +++: represented by the symbol ‘+’ which indicates the relative extent of modulation; ++++: represented by the symbol ‘+’ which indicates the relative extent of modulation; conditions: 24 hrs, 0.03-3.0 μM
Protocol: as §3

cleaved PARP = assay: PARP cleavage in HeLa cells (Western Blot); format: cell-based; set-up: key: represented by the symbol ‘+’ which indicates the relative extent of modulation; ++: represented by the symbol ‘+’ which indicates the relative extent of modulation; +++: represented by the symbol ‘+’ which indicates the relative extent of modulation; ++++: represented by the symbol ‘+’ which indicates the relative extent of modulation; conditions: 24 hrs, 0.03-3.0 μM
Protocol: HeLa Cells were seeded (0.3×10^6 Cells/well) into a 6 well plate and after 24 hrs compounds were added in 5 different concentrations (0.03, 0.1, 0.3, 1.0, 3.0 μM). After 24 hrs cells were lysed and cellular extract was used for assessing apoptotic activity by detection of cleaved PARP by Western Blot using monoclonal Anti-poly(ADP-Ribose) polymerase antibody, Clone C-2-10(Sigma).

[3] = fluorescence based kit, read-out: CYP liability (IC50 in μM) CYP 1A2
[4] = fluorescence based kit, read-out: CYP liability (IC50 in μM) CYP 2C19
[5] = fluorescence based kit, read-out: CYP liability (IC50 in μM) CYP 2C9
[6] = fluorescence based kit, read-out: CYP liability (IC50 in μM) CYP 2D6

T3 sequence (P11712 whole entry, canonical isoform): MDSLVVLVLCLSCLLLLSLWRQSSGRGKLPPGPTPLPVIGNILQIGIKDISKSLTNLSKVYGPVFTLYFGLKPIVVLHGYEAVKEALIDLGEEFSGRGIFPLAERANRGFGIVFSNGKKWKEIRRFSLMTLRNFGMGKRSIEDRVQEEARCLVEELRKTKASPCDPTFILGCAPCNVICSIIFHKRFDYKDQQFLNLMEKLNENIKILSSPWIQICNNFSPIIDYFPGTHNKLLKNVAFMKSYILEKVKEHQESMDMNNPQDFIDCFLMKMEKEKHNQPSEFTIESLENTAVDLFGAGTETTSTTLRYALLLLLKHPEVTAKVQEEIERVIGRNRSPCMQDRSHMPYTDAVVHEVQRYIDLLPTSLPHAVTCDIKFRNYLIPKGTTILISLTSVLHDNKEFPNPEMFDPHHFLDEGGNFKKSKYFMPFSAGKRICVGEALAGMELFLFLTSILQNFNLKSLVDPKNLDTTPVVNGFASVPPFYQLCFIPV
T2 sequence (P33261 whole entry, canonical isoform): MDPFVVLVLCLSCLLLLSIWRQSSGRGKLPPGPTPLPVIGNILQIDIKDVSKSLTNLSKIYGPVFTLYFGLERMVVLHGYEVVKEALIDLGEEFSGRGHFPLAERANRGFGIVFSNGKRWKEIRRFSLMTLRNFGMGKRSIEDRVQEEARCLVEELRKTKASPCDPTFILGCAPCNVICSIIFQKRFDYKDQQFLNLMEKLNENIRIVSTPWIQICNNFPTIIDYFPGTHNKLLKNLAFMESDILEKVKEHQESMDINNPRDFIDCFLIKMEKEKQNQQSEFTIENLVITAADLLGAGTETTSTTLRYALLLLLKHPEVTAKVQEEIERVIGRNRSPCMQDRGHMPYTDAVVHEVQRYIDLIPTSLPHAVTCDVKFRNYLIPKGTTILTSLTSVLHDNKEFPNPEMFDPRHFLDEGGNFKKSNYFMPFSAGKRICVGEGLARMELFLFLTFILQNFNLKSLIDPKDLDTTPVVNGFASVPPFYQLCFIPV
T4 sequence (P10635 whole entry, canonical isoform): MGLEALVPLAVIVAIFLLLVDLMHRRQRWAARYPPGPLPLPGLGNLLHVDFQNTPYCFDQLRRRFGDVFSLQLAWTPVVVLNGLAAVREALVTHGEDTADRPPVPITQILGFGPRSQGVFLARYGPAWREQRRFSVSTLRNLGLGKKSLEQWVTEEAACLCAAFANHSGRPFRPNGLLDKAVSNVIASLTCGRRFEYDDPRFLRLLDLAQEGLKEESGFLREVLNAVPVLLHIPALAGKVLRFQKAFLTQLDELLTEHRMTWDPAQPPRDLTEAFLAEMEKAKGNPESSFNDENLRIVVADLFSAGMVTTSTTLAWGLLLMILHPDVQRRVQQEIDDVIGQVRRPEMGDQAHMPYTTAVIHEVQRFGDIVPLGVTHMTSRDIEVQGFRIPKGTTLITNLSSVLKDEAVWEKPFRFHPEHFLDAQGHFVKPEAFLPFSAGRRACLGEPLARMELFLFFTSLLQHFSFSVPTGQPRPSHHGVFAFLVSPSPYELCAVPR

solubility [1] [µg/mL] | % Stable compounds after 1 hr incubation [2] [%] | IC50 (CYP 1A2; [3]) [µM] | IC50 (CYP 2C19; [4]) [µM] | IC50 (CYP 2C9; [5]) [µM] | IC50 (CYP 2D6; [6]) [µM] | IC50 (CYP 1A2) [µM] | IC50 (CYP 2C19) [µM] | IC50 (CYP 2C9) [µM] | IC50 (CYP 2D6) [µM] | SMILES | Target modulation: H3 acetylation (acetyl-Histone H3) | Target modulation: H4 acetylation (acetyl-Histone H4) | PARP cleavage (cleaved PARP)
4700 (≈ 11.9 mM) | 100 | > 60 | > 60 | > 60 | > 60 |  |  |  |  | O=C(NO)c1ccc(Cn2cc(-c3ccc(CN4CCOCC4)cc3)nn2)cc1 [Example 9, N-Hydroxy-4-[4-(4-morpholin-4-ylmethyl-phenyl)-[1,2,3]triazol-1-ylmethyl]-benzamide] | ++++ | ++++ | +++
9400 (≈ 23.3 mM) | 98 | > 60 | > 60 | > 60 | 13.2 |  |  |  |  | O=C(/C=C/c1ccc(Cn2cc(-c3ccc(CN4CCCC4)cc3)nn2)cc1)NO [Example 16, N-Hydroxy-3-{4-[4-(4-pyrrolidin-1-ylmethyl-phenyl)-[1,2,3]triazol-1-ylmethyl]-phenyl}-acrylamide] | ++ | ++++ | ++++
11600 (≈ 30.7 mM) | 65 | > 60 | > 60 | > 60 | > 60 |  |  |  |  | CN(C)Cc1ccc(-c2cn(Cc3ccc(/C=C/C(=O)NO)cc3)nn2)cc1 [Example 21] | +++ | ++++ | ++++
2900 | 57 | > 60 | > 60 | 51.5 | > 60 |  |  |  |  | O=C(/C=C/c1cccc(Cn2cc(-c3ccc(CN4CCOCC4)cc3)nn2)c1)NO [Example 25, N-Hydroxy-3-{3-[4-(4-morpholin-4-ylmethyl-phenyl)-[1,2,3]triazol-1-ylmethyl]-phenyl}-acrylamide hydrochloride] | ++++ | ++++ | +++
230 (≈ 0.87 mM) | 67 |  |  |  |  | 9.7 | 2.9 | 29.7 | 3.6 | O=C(CCCCCCC(=O)Nc1ccccc1)NO [SAHA, Suberoylanilide Hydroxamic Acid, reference compound] | +++ | +++ | ++

SMILES | solubility [1] [µg/mL] | % Stable compounds after 1 hr incubation [2] [%] | IC50 (CYP 1A2; [3]) [µM] | IC50 (CYP 2C19; [4]) [µM] | IC50 (CYP 2C9; [5]) [µM] | IC50 (CYP 2D6; [6]) [µM] | IC50 (CYP 1A2) [µM] | IC50 (CYP 2C19) [µM] | IC50 (CYP 2C9) [µM] | IC50 (CYP 2D6) [µM] | Target modulation: H3 acetylation (acetyl-Histone H3) | Target modulation: H4 acetylation (acetyl-Histone H4) | PARP cleavage (cleaved PARP)
O=C(NO)c1ccc(Cn2cc(-c3ccc(CN4CCCC4)cc3)nn2)cc1 [Example 8, N-Hydroxy-4-[4-(4-pyrrolidin-1-ylmethyl-phenyl)-[1,2,3]triazol-1-ylmethyl]-benzamide] | 5100 (≈ 13.5 mM) | 100 | > 60 | > 60 | > 60 | 26 |  |  |  |  | +++ | ++++ | +++
